This is an account of results in patent EP4567040A1, “CRYSTAL FORM OF FUSED TRICYCLIC DERIVATIVE AND PREPARATION METHOD” (Jiangsu Hengrui Pharmaceuticals Co., Ltd., priority 2022, dated 2024).

Molecules are shown by their SMILES.

The test concerns the target T1, CYP1A2 (Homo sapiens, UniProt P05177).
T1 sequence (P05177 1-516): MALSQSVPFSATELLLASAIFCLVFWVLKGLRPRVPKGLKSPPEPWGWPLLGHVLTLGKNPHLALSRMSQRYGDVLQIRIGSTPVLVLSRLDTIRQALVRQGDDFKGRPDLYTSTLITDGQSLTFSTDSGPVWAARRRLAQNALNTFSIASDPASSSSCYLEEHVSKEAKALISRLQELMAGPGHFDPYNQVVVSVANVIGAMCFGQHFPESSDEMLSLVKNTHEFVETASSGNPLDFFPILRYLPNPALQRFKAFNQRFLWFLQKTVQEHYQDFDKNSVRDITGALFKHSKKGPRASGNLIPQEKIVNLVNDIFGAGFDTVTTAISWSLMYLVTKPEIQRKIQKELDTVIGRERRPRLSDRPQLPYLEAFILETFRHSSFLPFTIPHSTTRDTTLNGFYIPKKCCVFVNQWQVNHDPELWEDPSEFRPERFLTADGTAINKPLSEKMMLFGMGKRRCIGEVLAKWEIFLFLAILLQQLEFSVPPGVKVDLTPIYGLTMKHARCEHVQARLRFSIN
The test is described as follows: biochemical.

Procedure: The effects of different concentrations of the test compounds on the metabolic reactions of phenacetin (CYP1A2), diclofenac sodium (CYP2C9), S-mephenytoin (CYP2C19), bufuralol hydrochloride (CYP2D6), and midazolam (CYP3A4/5) were assessed by liquid chromatography-tandem mass spectrometry (LC/MS/MS).
Then, 200 µL of an acetonitrile solution containing 3% formic acid and 40 nM internal standard verapamil was added, and the mixture was centrifuged at 4000 rpm for 50 min. The mixture was cooled on ice for 20 min and centrifuged at 4000 rpm for 20 min to precipitate protein. 200 µL of the supernatant was taken for LC/MS/MS analysis.
The peak area was calculated based on the chromatogram. The residual activity proportion (%) was calculated using the following formula: peak area ratio = peak area of metabolite / peak area of internal standard [formula]
The half maximal inhibitory concentrations (IC50) against CYP were calculated using Excel XLfit 5.3.1.3.

As a reminder, the IC50 is the point on the concentration scale where inhibition reaches its midpoint. A low value points to greater potency in that assay. Turning to `C[C@H]1COc2c(-c3nc(N[C@@H]4CCOC[C@H]4O)ncc3Cl)cc(F)c3nc(C(C)(C)O)n1c23` (single isomer, unassigned) [Isomer 1 with a retention time of 2.078 min], the IC50 is greater than 30 µM.

On to `C[C@@H]1COc2c(-c3nc(N[C@@H]4CCOC[C@H]4O)ncc3Cl)cc(F)c3nc(C(C)(C)O)n1c23` (single isomer, unassigned) [Isomer 2 with a retention time of 1.887 min], for which the IC50 is greater than 30 µM.
